# Earlier results, collected in patent publication US11318142B2, “Pharmaceutical formulation for use in the treatment of depressive and anxiety disorders” (priority 2018, dated 2022).
# Conditions: in vivo
row,Compound,half-life
1,"COc1ccc(C(CN(C)C)C2(O)CCCCC2)cc1 (racemic) [venlafaxine, (RS)-1-[2-dimethylamino-1-(4-methoxyphenyl)-ethyl]cyclohexanol]",~7 h
2,"OCCN1CCN(CCCN2c3ccccc3C=Cc3ccccc32)CC1 [opipramol, 4-[3-(5H-dibenz[b,f]azepine-5-yl)propyl]-1-piperazinethanol]",6 to 11 h
